Assay results from patent US4648996A, “Phenyl substituted-2,4,6,8-nonatetraenoic acid” (Hoffmann-La Roche Inc., priority 1985, dated 1987).

Assays:
in vivo = conditions: mouse
Text: The compounds of formulae I and II and salts thereof can be utilized to treat patients suffering from rheumatoid arthritis and related disorders.

[1] = tested on: established adjuvant arthritis in rats; experiment: Effect on the course of established adjuvant arthritis; format: in vivo, Male Lewis rats from Charles River; conditions: 100 mg/kg, 7 days
Procedure: Male Lewis rats from Charles River were used for these experiments.
Heat-killed, dessicated Mycobacteriam butyricum.
Adjuvant arthritis was induced by the injection of 0.1 ml of adjuvant [a suspension of heat-killed, dessicated Mycobacterium butyricum, 0.5% CW/V) in heavy mineral oil containing 0.2% digitonin] into the base of the tail. The arthritis was allowed to develop for 21 days and then the volume of both hind paws were measured using a mercury plethysmograph. The rats were divided into groups of 8 with equal mean paw volumes and then the rats were treated with Compound A, indomethacin (as a control drug), or vehicle for 7 days at the end of the treatment period, the volumes of both hind paws were again measured to assess antiinflammatory effects. Body weight changes were also followed and, at the end of the experiment, plasma was collected for determination of plasma fibrinogen (Exner et. al., Amer. J. Clin. Path, 71: 521-527).
^b Drugs were administered once a day for 7 days by intubation
^c Change in paw volume/body weight equals paw volume body weight on […]

[2] = tested on: carrageenan pleurisy in rats; experiment: Non-immune inflammation, 4 hr carrageenan pleurisy; format: in vivo, Female Alderley Park Strain 1 rats; conditions: 10 days
Procedure: Female Alderley Park Strain 1 rats weighing 170-205 g. at the start of the experiment were used.
Lambda-carrageenan. Prepared as a solution in saline and sterilized by autoclaving.
Compound A was administered orally to groups of 8 rats once daily for 10 days at doses of 10, 30 and 100 mg.kg^-1. Control animals received the vehicle. One hour after the last dose the animals were anesthetised with methohexitone (Brietal, 50 mg.kg^-1) and 0.2 ml of 1% lambda carrageenan was injected into the pleural cavity. Four hours later the animals were killed with an overdose of pentobarbitone (Sagatal), the pleural exudate was collected and the pleural cavity was washed out with 2 ml of phosphate-buffered saline (PBS-A, Oxoid). The exudate volume was recorded and cell counts were determined using an automatic cell counter (Coulter). Differential cell counts were performed on exudate smears stained with Giemsa stain in order to determine separately the numbers of polymorphonuclear leucocytes (PMN) and mononuclear cells (MN).
Immediately after recovery of the pleural exudates the tibiae of the animals were excised and their breaking strains were determined.
The body weights of the animals were recorded daily. Statistical analyses were performed using Student's two-tailed t test.

Structure (SMILES): CCCCCCCCCOc1ccccc1/C=C/C(C)=C/C=C/C(C)=C/C(=O)O [Compound A, All(E)-9-[2(nonyloxy)phenyl]-3,7-dimethyl-2,4,6,8-nonatetraenoic acid]
- LD50 (in vivo; ip): > 1000 mg/kg
- LD50 (in vivo; po): > 1000 mg/kg
- Plasma Fibrinogen [1]: 874 ± 57 mg/dL
- Change in Body Weight ([1]; day 28 minus day 22): 5.2 ± 2.1 g
- Change in Paw Volume ([1]; day 28 minus day 22, both hind paws): -0.96 ± 0.10 mL
- Exudate Volume ([2]; 10 mg per kg per day p.o.): 0.94 mL
- Exudate Volume % change ([2]; 10 mg per kg per day p.o.): -32.8%
- Tibial Breaking Strain (Right + Left) % change ([2]; 10 mg per kg per day p.o.): -3.4%
- Tibial Breaking Strain (Right + Left) Mean ([2]; 10 mg per kg per day p.o.): 6.5 kg
- Total Cell Count ([2]; 10 mg per kg per day p.o.): 120.8 ×10^6
- Total Cell Count % change ([2]; 10 mg per kg per day p.o.): -6.5%
- Total MN ([2]; 10 mg per kg per day p.o.): 8.4 ×10^6
- Total MN % change ([2]; 10 mg per kg per day p.o.): -17.4%
- Total PMN ([2]; 10 mg per kg per day p.o.): 112.4 ×10^6
- Total PMN % change ([2]; 10 mg per kg per day p.o.): -5.6%
- Exudate Volume ([2]; 30 mg per kg per day p.o.): 0.88 mL
- Exudate Volume % change ([2]; 30 mg per kg per day p.o.): -36.9%
- Tibial Breaking Strain (Right + Left) % change ([2]; 30 mg per kg per day p.o.): +1.5%
- Tibial Breaking Strain (Right + Left) Mean ([2]; 30 mg per kg per day p.o.): 6.8 kg
- Total Cell Count ([2]; 30 mg per kg per day p.o.): 112.1 ×10^6
- Total Cell Count % change ([2]; 30 mg per kg per day p.o.): -13.3%
- Total MN ([2]; 30 mg per kg per day p.o.): 7.9 ×10^6
- Total MN % change ([2]; 30 mg per kg per day p.o.): -23.1%
- Total PMN ([2]; 30 mg per kg per day p.o.): 104.2 ×10^6
- Total PMN % change ([2]; 30 mg per kg per day p.o.): -12.4%
- Exudate Volume ([2]; 100 mg per kg per day p.o.): 0.80 mL
- Exudate Volume % change ([2]; 100 mg per kg per day p.o.): -42.9%
- Tibial Breaking Strain (Right + Left) % change ([2]; 100 mg per kg per day p.o.): -0.3%
- Tibial Breaking Strain (Right + Left) Mean ([2]; 100 mg per kg per day p.o.): 6.7 kg
- Total Cell Count ([2]; 100 mg per kg per day p.o.): 109.1 ×10^6
- Total Cell Count % change ([2]; 100 mg per kg per day p.o.): -15.7%
- Total MN ([2]; 100 mg per kg per day p.o.): 7.5 ×10^6
- Total MN % change ([2]; 100 mg per kg per day p.o.): -26.7%
- Total PMN ([2]; 100 mg per kg per day p.o.): 101.6 ×10^6
- Total PMN % change ([2]; 100 mg per kg per day p.o.): -14.7%
